The values that follow come from patent publication US11753408B2, “Compounds and method for blocking transmission of malarial parasite” (The United States of America, as represented by the …, priority 2016, dated 2023).

Series [1] can be described thus: Microsomal stability (rat). It counts as in vitro ADME. As to conditions: rat microsomes.
Series [2] addresses mTOR (Homo sapiens, UniProt P42345). As to the kind of experiment: mTOR activity (no method described). It counts as biochemical.
In series [3] the test system is Asexual parasites of P. falciparum strain 3D7. As to the kind of experiment: In vitro drug activity on asexual parasites (SYBR Green assay). It counts as cell-based, Plasmodium falciparum. An outline of the steps:
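SYBR Green I fluorescence (ex 490, em 520 nm) was read after freeze-thaw lysis and 30 min staining at room temperature. Before that, drug-treated cultures (0.5% parasitemia, 2% hematocrit, DMSO ≤0.5%) were incubated 72 h, in duplicate.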

The nature of series [4]: Solubility at pH 7.4. It counts as physicochemical.
A short description of series [5]: PAMPA permeability. It counts as in vitro ADME. (In PAMPA a lipid-coated filter parts donor from acceptor wells.)

By EC50 is commonly meant the concentration at which the effect is half-maximal.

For the compound `CCN(CC)CCNC(=O)c1ccc(-n2c(=O)ccc3cnc4ccc(-c5ccc(Cl)cc5)cc4c32)c(C)c1` [Compound 276], in series [1], the “Microsomal Stability (rat) T1/2” value came to 5.8 min. Moreover, in series [2], the mTOR came out at 21.76 µM. In series [3], this compound registered an EC50 of 222 nM. Moreover, the “Sol @ pH 7.4” value in series [4] stood at 34.8 ug/mL. The same compound yielded a PAMPA Permeability in series [5] of 973 ×10⁻⁶ cm/s.

As for `O=C(NC1CC1)c1ccc(-n2c(=O)ccc3cnc4ccc(-c5ccc(F)cc5)cc4c32)cc1` [Compound 91], in series [1], the “Microsomal Stability (rat) T1/2” value is more than 30 min. In addition, the mTOR in series [2] was found to be 4.415 µM. The compound further displayed an EC50 in series [3] of 33 nM. Also, the “Sol @ pH 7.4” value in series [4] is less than 1 ug/mL. Also, in series [5], the PAMPA Permeability worked out at 54.2 ×10⁻⁶ cm/s.

In the case of `CC(C)c1ccc(-c2ccc3ncc4ccc(=O)n(-c5ccc(C(=O)N6CCOCC6)cc5)c4c3c2)cc1` [Compound 201], in series [1], the “Microsomal Stability (rat) T1/2” value is 12.6 min. Also, the mTOR in series [2] turned out to be 17.28 µM. In addition, the EC50 in series [3] is 1620 nM. Moreover, the “Sol @ pH 7.4” value in series [4] is given as less than 1 ug/mL. Further, the PAMPA Permeability in series [5] came out at 13.8 ×10⁻⁶ cm/s.

Take `N#Cc1ccc2ncc3ccc(=O)n(-c4ccc(C(=O)N5CCOCC5)cc4)c3c2c1` [Compound 245]: the “Microsomal Stability (rat) T1/2” value in series [1] is more than 30 min. In series [2], the mTOR amounted to 10.41 µM. The same compound had an EC50 in series [3] of 3820 nM. For the same compound, the “Sol @ pH 7.4” value in series [4] was more than 61 ug/mL. In series [5], this compound registered a PAMPA Permeability of 11.7 ×10⁻⁶ cm/s.

With `O=C(NC1CN(CCO)C1)c1ccc(-n2c(=O)ccc3cnc4ccc(-c5ccc(Cl)cc5)cc4c32)cc1` [Compound 94], the “Microsomal Stability (rat) T1/2” value in series [1] is listed as more than 30 min. The compound also had a mTOR in series [2] of 4.188 µM. For the same compound, it took 24.9 nM to reach a half-maximal effect in series [3] (EC50). For the same compound, the “Sol @ pH 7.4” value in series [4] is 13.6 ug/mL. Besides, the PAMPA Permeability in series [5] is 1.9 ×10⁻⁶ cm/s.

On to `O=C(NC1COC1)c1ccc(-n2c(=O)ccc3cnc4ccc(-c5ccc(Cl)cc5)cc4c32)cc1` [Compound 231], for which the “Microsomal Stability (rat) T1/2” value in series [1] was found to be 18 min. Moreover, the mTOR in series [2] was 0.8505 µM. The compound further had an EC50 in series [3] of 22.7 nM. In addition, the “Sol @ pH 7.4” value in series [4] was less than 1 ug/mL. In series [5], the PAMPA Permeability worked out at 364 ×10⁻⁶ cm/s.

Consider `Cc1cc(C(=O)NCCN(C)C)ccc1-n1c(=O)ccc2cnc3ccc(-c4ccc(Cl)cc4)cc3c21` [Compound 274], for which the “Microsomal Stability (rat) T1/2” value in series [1] is 21.4 min. For the same compound, in series [2], the mTOR was 4.9 µM. The same compound showed an EC50 in series [3] of 40.6 nM. In addition, in series [4], the “Sol @ pH 7.4” value is 63.8 ug/mL. This compound displayed a PAMPA Permeability in series [5] of 1010 ×10⁻⁶ cm/s.

For the compound `O=C(NC1CC1)c1ccc(-n2c(=O)ccc3cnc4ccc(-c5ccc(Cl)cc5)nc4c32)cc1` [Compound 93], the “Microsomal Stability (rat) T1/2” value in series [1] was more than 30 min. Moreover, the mTOR in series [2] amounted to 0.4507 µM. The EC50 in series [3] was 27.9 nM. The “Sol @ pH 7.4” value in series [4] was less than 1 ug/mL. In series [5], the PAMPA Permeability worked out at 76.3 ×10⁻⁶ cm/s.

For `O=C(NC1CC1)c1ccc(-n2c(=O)ccc3cnc4ccc(-c5ccc(CN6CCCC6)cc5)cc4c32)cc1` [Compound 233], the “Microsomal Stability (rat) T1/2” value in series [1] is on record as more than 30 min. The compound further displayed a mTOR in series [2] of 6.306 µM. Further, a half-maximal effect in series [3] (EC50) was put at 162 nM. Further, in series [4], the “Sol @ pH 7.4” value is given as more than 76 ug/mL. For the same compound, in series [5], the PAMPA Permeability came out at 155 ×10⁻⁶ cm/s.

As to `O=C(c1ccc(-n2c(=O)ccc3cnc4ccc(-c5cccc(CCN6CCCC6)c5)cc4c32)cc1)N1CCOCC1` [Compound 211], the “Microsomal Stability (rat) T1/2” value in series [1] is more than 30 min. Also, the mTOR in series [2] was 43.09 µM. Also, in series [3], a half-maximal response (EC50) required 3880 nM. Moreover, the “Sol @ pH 7.4” value in series [4] is reported as more than 83 ug/mL. Also, the PAMPA Permeability in series [5] came to 227 ×10⁻⁶ cm/s.

As for `CN(C)CCOc1ccc(-c2ccc3ncc4ccc(=O)n(-c5ccc(C(=O)N6CCOCC6)cc5)c4c3c2)cc1` [Compound 202], in series [1], the “Microsomal Stability (rat) T1/2” value is given as more than 30 min. This compound came in with a mTOR in series [2] of 3.267 µM. The compound also showed an EC50 in series [3] of 120 nM. In addition, the “Sol @ pH 7.4” value in series [4] turned out to be 57.8 ug/mL. This compound yielded a PAMPA Permeability in series [5] of 415 ×10⁻⁶ cm/s.
